Results reported in US20260207578A1, “COMPOUND BASED ON SULFUR/OXYGEN SUBSTITUTED GLUTARIMIDE-BASED ISOINDOLINONE SKELETON AND USE THEREOF” (Gluetacs Therapeutics (Shanghai) Co., LTD., priority 2022, published 2026).

What was measured:
[1] = target: T1, human Cereblon WT GST-tagged protein (Homo sapiens, UniProt Q96SW2); test: CRBN-binding affinity, HTRF (CEREBLON BINDING kit); settings: displacement of Thalidomide-Re reagent, 3 hours at room temperature
T1 construct: purchased CISBIO 64BDCRBNPEH
Method in brief: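 Compounds displace a thalidomide-Re tracer from GST-tagged human Cereblon WT, detected with an Eu-labelled anti-GST antibody by time-resolved fluorescence. Signal at 620 nm was normalised against solvent and blank controls.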

[2] = target: T2, IKZF3 (Homo sapiens, UniProt Q96SW2+Q9UKT9); test: Western-blot assay, substrate protein in hPBMCs; assay type: cell-based; settings: hPBMC cells, 24 hours, tested at 50 nM and 500 nM, table does not say which
T2 construct: endogenous in cells; host or cells: human PBMCs (Milecell Biotechnologies)
Method: (§1) The effect of the compounds of the present disclosure on the expression of target proteins in cells was detected using conventional Western blot analysis.
(§2) Human peripheral blood mononuclear cells (hPBMCs) at a density of 1×10^6 cells/mL were thawed according to the PBMC Recovery Protocol (Milecell Biotechnologies Inc, Shanghai). The cells were then treated with the compounds of the present disclosure (including the compounds listed in Tables 1 and 2, and the Examples A1-A20 and 1-116 compounds) at concentrations of 50 nM and 500 nM.
(§3) Controls included a negative control (DMSO) and a positive control (the commercial immunomodulatory drug lenalidomide), both processed following the identical experimental protocol as the compounds of the present disclosure. After 24 hours of compounds treatment, cells were harvested and lysed in RIPA protein lysate containing phosphatase inhibitors on ice for 30-60 min, followed by centrifugation. The supernatant was aspirated as the extracted total cell protein. The protein concentration of the supernatant was determined using the conventional BCA (Bicinchoninic Acid) assay. The supernatant was then mixed with 4× SDS sample loading buffer, denatured at 95° C. for 5 minutes, and then subjected to SDS-PAGE electrophoresis on a polyacrylamide gel. Proteins were then transferred to a nitrocellulose (NC) membrane, blocked at room temperature for 1-2 h, and processed for antibody incubation and detection according to the manufacturer's instructions (Cell Signaling Technology).
(§4) Half-Maximal Degradation Concentration value (the drug concentration required for degrading proteins by 50%, abbreviated as DC50) reads method: comparing the grayscale values of Western blot bands from drug-treated samples with those from blank DMSO-treated controls, and identifying the drug concentration range at which the grayscale value is half that of the DMSO-treated control bands.
(§5) DC50 values can be calculated using ImageJ software to measure grayscale values of Western blot bands from drug-treated samples. The concentration-response curve is fitted to estimate the drug concentration corresponding to half the grayscale value.
(§6) Target protein remaining (%) refers to the percentage of target protein remaining in hPBMC cells after treatment with protein degrader compounds.
(§7) Calculation method for protein remaining (%): Use ImageJ software to measure grayscale values of Western blot bands from drug (protein degrader)-treated samples. The grayscale value of drug-treated bands is divided by that of internal control protein bands, and the resulting quotient is normalized to obtain the relative percentage of remaining target protein after protein degrader treatment.
(§8) Target protein degradation rate (%)=100%−target protein remaining (%).

[3] = target: T3, IKZF1 (Homo sapiens, UniProt Q13422+Q96SW2); test: Western-blot assay, substrate protein in hPBMCs; assay type: cell-based; settings: hPBMC cells, 24 hours, tested at 50 nM and 500 nM, table does not say which
T3 construct: endogenous in cells; host or cells: human PBMCs (Milecell Biotechnologies)
Method: as §1, §2, §3, §4, §5, §6, §7, §8

[4] = target: T4, Wee1 (Homo sapiens, UniProt P30291+Q96SW2); test: Western-blot assay, substrate protein in hPBMCs; assay type: cell-based; settings: hPBMC cells, 24 hours, tested at 50 nM and 500 nM, table does not say which
T4 construct: endogenous in cells; host or cells: human PBMCs (Milecell Biotechnologies)
Method in brief: (§9)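 Thawed hPBMCs, 1×10^6 cells/mL; 24 h compound; RIPA + phosphatase inhibitor lysis, BCA-normalised loading, SDS-PAGE, NC transfer, immunodetection. Bands vs internal control → % remaining; DC50 = concentration at 50% of DMSO band intensity.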

[5] = target: T5, GSPT1 (Homo sapiens, UniProt P15170+Q96SW2); test: Western-blot assay, substrate protein in hPBMCs; assay type: cell-based; settings: hPBMC cells, 24 hours, tested at 50 nM and 500 nM, table does not say which
T5 construct: endogenous in cells; host or cells: human PBMCs (Milecell Biotechnologies)
Method in brief: as §9

[6] = target: T6, CK1α (Homo sapiens, UniProt P48729+Q96SW2); test: Western-blot assay, substrate protein in hPBMCs; assay type: cell-based; settings: hPBMC cells, 24 hours, tested at 50 nM and 500 nM, table does not say which
T6 construct: endogenous in cells; host or cells: human PBMCs (Milecell Biotechnologies)
Method in brief: as §9

[7] = target: T7, IKZF2 (Homo sapiens, UniProt Q96SW2+Q9UKS7); test: Western-blot assay, substrate protein in hPBMCs; assay type: cell-based; settings: hPBMC cells, 24 hours, tested at 50 nM and 500 nM, table does not say which
T7 construct: endogenous in cells; host or cells: human PBMCs (Milecell Biotechnologies)
Method in brief: as §9

T3 sequence (Q13422 whole entry): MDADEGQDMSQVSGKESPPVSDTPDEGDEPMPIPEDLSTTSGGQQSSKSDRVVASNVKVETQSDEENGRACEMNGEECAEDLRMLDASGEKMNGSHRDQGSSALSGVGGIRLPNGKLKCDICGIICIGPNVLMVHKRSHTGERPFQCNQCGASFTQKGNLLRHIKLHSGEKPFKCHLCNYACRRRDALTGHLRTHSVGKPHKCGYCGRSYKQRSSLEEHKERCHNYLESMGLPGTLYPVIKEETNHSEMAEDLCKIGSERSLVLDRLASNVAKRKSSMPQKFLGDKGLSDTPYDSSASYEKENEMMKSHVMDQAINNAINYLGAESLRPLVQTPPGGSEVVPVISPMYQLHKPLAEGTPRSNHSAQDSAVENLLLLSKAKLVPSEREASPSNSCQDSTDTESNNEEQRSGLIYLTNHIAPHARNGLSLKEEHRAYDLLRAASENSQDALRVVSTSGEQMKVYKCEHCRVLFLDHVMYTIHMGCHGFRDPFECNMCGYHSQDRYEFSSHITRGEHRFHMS
T3 sequence (Q96SW2 whole entry): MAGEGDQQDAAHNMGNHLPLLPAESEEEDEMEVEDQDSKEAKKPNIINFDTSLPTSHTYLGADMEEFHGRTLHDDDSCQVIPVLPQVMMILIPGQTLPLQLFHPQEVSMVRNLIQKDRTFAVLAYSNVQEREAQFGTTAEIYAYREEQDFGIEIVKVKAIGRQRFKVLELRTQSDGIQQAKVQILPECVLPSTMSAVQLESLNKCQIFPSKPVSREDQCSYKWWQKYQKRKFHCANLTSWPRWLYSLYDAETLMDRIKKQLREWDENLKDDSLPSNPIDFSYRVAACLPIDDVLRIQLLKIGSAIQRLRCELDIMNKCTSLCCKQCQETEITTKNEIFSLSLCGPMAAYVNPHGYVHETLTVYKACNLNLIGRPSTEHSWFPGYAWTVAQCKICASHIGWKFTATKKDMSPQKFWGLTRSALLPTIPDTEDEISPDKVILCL
T3 sequence (Q16531 whole entry partner): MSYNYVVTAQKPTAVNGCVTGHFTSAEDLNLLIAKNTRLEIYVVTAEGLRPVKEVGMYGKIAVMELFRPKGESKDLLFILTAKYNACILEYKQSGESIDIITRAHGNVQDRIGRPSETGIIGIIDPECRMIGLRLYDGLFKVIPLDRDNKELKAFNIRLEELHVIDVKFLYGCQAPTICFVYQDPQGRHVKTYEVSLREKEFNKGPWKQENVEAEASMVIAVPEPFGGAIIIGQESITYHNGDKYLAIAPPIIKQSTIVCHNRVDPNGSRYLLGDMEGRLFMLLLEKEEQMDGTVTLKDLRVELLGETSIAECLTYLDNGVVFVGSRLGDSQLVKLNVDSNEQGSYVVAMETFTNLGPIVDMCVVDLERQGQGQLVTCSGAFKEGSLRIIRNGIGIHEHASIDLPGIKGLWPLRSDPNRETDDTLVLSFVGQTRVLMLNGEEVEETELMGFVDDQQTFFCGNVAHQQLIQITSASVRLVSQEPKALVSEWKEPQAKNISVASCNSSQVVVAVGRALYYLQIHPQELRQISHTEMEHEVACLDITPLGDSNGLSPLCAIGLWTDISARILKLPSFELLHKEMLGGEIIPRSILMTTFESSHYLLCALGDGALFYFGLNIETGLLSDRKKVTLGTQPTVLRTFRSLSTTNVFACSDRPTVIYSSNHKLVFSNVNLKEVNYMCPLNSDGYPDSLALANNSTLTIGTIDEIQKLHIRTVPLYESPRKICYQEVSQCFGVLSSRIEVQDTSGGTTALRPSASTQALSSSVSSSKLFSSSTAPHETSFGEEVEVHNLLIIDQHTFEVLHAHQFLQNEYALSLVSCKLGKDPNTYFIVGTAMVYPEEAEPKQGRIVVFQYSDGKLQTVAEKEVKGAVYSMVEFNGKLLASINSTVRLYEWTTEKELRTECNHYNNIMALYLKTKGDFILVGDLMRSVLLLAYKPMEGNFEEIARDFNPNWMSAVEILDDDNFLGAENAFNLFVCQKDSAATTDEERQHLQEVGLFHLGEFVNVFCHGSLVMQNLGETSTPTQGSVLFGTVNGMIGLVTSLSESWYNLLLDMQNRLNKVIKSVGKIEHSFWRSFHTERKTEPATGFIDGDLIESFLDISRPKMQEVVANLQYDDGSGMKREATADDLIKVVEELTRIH
T2 sequence (Q9UKT9 whole entry): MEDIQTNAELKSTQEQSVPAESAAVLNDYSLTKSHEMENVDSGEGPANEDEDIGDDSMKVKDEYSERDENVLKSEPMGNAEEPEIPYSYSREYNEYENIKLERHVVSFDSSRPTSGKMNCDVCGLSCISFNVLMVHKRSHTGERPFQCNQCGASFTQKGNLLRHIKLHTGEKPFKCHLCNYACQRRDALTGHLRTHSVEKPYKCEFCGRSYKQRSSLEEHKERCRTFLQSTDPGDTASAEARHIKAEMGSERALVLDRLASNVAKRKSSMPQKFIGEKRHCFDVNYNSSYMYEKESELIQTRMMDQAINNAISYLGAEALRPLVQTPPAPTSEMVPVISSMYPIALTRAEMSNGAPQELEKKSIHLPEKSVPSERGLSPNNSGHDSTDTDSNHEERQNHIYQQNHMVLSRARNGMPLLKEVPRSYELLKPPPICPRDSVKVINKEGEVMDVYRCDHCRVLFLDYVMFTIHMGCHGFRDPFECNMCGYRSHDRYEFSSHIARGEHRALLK
T2 sequence (Q96SW2 whole entry): as the sequence (Q96SW2 whole entry) above
T2 sequence (Q16531 whole entry partner): as the sequence (Q16531 whole entry partner) above
T7 sequence (Q9UKS7 whole entry): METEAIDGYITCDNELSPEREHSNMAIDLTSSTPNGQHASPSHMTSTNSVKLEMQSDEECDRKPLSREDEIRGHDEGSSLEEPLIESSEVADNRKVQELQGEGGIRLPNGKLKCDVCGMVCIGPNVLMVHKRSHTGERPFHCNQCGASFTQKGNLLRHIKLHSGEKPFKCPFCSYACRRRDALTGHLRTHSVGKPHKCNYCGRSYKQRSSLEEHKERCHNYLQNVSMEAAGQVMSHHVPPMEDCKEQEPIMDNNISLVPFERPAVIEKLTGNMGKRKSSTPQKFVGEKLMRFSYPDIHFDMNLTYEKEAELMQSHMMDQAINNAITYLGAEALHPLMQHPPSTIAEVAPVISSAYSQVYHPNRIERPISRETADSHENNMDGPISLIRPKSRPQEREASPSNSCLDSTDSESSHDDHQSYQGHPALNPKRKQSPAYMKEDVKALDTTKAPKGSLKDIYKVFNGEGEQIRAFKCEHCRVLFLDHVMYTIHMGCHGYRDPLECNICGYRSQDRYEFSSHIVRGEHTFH
T7 sequence (Q96SW2 whole entry): as the sequence (Q96SW2 whole entry) above
T7 sequence (Q16531 whole entry partner): as the sequence (Q16531 whole entry partner) above
T4 sequence (P30291 whole entry): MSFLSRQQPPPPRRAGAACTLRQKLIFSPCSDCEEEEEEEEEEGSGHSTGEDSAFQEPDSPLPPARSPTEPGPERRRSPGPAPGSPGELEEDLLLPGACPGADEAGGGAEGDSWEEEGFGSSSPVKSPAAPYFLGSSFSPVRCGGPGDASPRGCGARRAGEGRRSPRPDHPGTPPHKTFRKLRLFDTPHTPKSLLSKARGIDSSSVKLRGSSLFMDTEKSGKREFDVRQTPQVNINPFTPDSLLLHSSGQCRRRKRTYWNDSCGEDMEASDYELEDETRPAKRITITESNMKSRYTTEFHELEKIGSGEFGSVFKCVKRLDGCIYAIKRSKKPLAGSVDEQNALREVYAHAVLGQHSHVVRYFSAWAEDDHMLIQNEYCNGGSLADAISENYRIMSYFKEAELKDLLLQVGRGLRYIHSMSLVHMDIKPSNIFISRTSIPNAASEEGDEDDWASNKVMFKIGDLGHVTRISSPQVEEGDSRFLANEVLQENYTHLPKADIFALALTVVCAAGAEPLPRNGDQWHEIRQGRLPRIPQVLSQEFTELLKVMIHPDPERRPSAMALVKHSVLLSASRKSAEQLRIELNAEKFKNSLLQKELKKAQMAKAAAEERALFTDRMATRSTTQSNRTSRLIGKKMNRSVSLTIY
T4 sequence (Q96SW2 whole entry): as the sequence (Q96SW2 whole entry) above
T4 sequence (Q16531 whole entry partner): as the sequence (Q16531 whole entry partner) above
T5 sequence (P15170 whole entry): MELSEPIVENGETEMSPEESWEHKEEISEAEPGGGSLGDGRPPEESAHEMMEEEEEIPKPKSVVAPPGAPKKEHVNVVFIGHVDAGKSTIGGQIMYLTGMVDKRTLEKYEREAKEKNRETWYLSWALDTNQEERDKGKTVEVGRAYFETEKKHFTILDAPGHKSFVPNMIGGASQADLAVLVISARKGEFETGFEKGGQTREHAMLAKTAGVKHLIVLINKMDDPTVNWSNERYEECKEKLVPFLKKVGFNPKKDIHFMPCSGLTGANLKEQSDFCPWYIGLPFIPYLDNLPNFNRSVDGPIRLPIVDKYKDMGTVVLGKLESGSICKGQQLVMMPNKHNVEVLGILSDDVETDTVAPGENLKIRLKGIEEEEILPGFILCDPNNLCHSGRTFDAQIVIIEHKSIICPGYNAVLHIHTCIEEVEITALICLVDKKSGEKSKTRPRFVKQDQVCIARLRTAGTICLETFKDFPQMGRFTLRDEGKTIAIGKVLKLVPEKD
T5 sequence (Q96SW2 whole entry): as the sequence (Q96SW2 whole entry) above
T5 sequence (Q16531 whole entry partner): as the sequence (Q16531 whole entry partner) above
T1 sequence (Q96SW2 whole entry): as the sequence (Q96SW2 whole entry) above

IC50 [1] | Structure (SMILES) | substrate protein remaining % [2] | substrate protein remaining % [3] | substrate protein remaining % [4] | substrate protein remaining % [5] | substrate protein remaining % [6] | substrate protein remaining % [7]
500 to 1000 nM | CC1(C)CCC(CN2CC(Oc3ccc4c(c3)CN(C3CCC(=O)NC3=O)C4=O)C2)=C(c2ccc(Cl)cc2)C1 (stereo not drawn) [GT-03369, 3-(5-((1-((4′-chloro-5,5-dimethyl-3,4,5,6-tetrahydro-[1,1′-biphenyl]-2-yl)methyl)azetidin-3-yl)oxy)-1-oxoisoindolin-2-yl)piperidine-2,6-dione] | A (0%≤ substrate protein remaining % ≤80%) | A (0%≤ substrate protein remaining % ≤80%) | A (0%≤ substrate protein remaining % ≤80%) | A (0%≤ substrate protein remaining % ≤80%) |  | 
< 500 nM | O=C1CCC(N2Cc3cc(SC4CC5CN(C(c6ccccc6)c6ccccc6)CC5C4)ccc3C2=O)C(=O)N1 (stereo not drawn) [GT-06922, 3-(5-((2-benzhydryloctahydro-cyclopenta[c]pyrrol-5-yl)thio)-1-oxoisoindolin-2-yl)piperidine-2,6-dione] | A (0%≤ substrate protein remaining % ≤80%) | A (0%≤ substrate protein remaining % ≤80%) | A (0%≤ substrate protein remaining % ≤80%) | A (0%≤ substrate protein remaining % ≤80%) | A (0%≤ substrate protein remaining % ≤80%) | 
< 500 nM | O=C1CCC(N2Cc3cc(OC4CCN(C(c5ccccc5)c5ccccc5)CC4)ccc3C2=O)C(=O)N1 (stereo not drawn) [GT-06195, 3-(5-((1-benzhydrylpiperidin-4-yl)oxy)-1-oxoisoindolin-2-yl)piperidine-2,6-dione] | A (0%≤ substrate protein remaining % ≤80%) | A (0%≤ substrate protein remaining % ≤80%) | A (0%≤ substrate protein remaining % ≤80%) | A (0%≤ substrate protein remaining % ≤80%) | A (0%≤ substrate protein remaining % ≤80%) | 
500 to 1000 nM | CC1(C)CCC(CN2CC(Oc3cccc4c3CN(C3CCC(=O)NC3=O)C4=O)C2)=C(c2ccc(Cl)cc2)C1 (stereo not drawn) [GT-06952, 3-(4-((1-((4′-chloro-5,5-dimethyl-3,4,5,6-tetrahydro-[1,1′-biphenyl]-2-yl)methyl)azetidin-3-yl)oxy)-1-oxoisoindolin-2-yl)piperidine-2,6-dione] | A (0%≤ substrate protein remaining % ≤80%) | A (0%≤ substrate protein remaining % ≤80%) |  | A (0%≤ substrate protein remaining % ≤80%) | A (0%≤ substrate protein remaining % ≤80%) | 
1000 to 1900 nM | O=C1CCC(N2Cc3cc(SC4CN(CC5=C(c6ccc(Cl)cc6)CCC(F)(F)C5)C4)ccc3C2=O)C(=O)N1 (stereo not drawn) [GT-06516, 3-(5-((1-((4′-chloro-4,4-difluoro-3,4,5,6-tetrahydro-[1,1′-biphenyl]-2-yl)methyl)azetidin-3-yl)thio)-1-oxoisoindolin-2-yl)piperidine-2,6-dione] | A (0%≤ substrate protein remaining % ≤80%) |  | A (0%≤ substrate protein remaining % ≤80%) | A (0%≤ substrate protein remaining % ≤80%) | A (0%≤ substrate protein remaining % ≤80%) | A (0%≤ substrate protein remaining % ≤80%)
1000 to 1900 nM | CC1(C)CCC(CN2CCC3(CC2)CC(Oc2ccc4c(c2)CN(C2CCC(=O)NC2=O)C4=O)C3)=C(c2ccc(Cl)cc2)C1 (stereo not drawn) [GT-06933, 3-(5-((7-((4′-chloro-5,5-dimethyl-3,4,5,6-tetrahydro-[1,1′-biphenyl]-2-yl)methyl)-7-azaspiro[3.5]nonan-2-yl)oxy)-1-oxoisoindolin-2-yl)piperidine-2,6-dione] | A (0%≤ substrate protein remaining % ≤80%) | A (0%≤ substrate protein remaining % ≤80%) | A (0%≤ substrate protein remaining % ≤80%) |  |  | A (0%≤ substrate protein remaining % ≤80%)
500 to 1000 nM | O=C1CCC(N2Cc3cc(OC4CN(Cc5cnc(-c6ccccc6)cn5)C4)ccc3C2=O)C(=O)N1 (stereo not drawn) [GT-06353, 3-(1-oxo-5-((1-((5-phenylpyrazin-2-yl)methyl)azetidin-3-yl)oxy)isoindolin-2-yl)piperidine-2,6-dione] | A (0%≤ substrate protein remaining % ≤80%) | A (0%≤ substrate protein remaining % ≤80%) | A (0%≤ substrate protein remaining % ≤80%) | A (0%≤ substrate protein remaining % ≤80%) | A (0%≤ substrate protein remaining % ≤80%) | 
< 500 nM | O=C1CCC(N2Cc3cc(OC4CN(CC5=C(c6ccc(Cl)cc6)CCOC5)C4)ccc3C2=O)C(=O)N1 (stereo not drawn) [GT-06354, 3-(5-((1-((4-(4-chlorophenyl)-5,6-dihydro-2H-pyran-3-yl)methyl)azetidin-3-yl)oxy)-1-oxoisoindolin-2-yl)piperidine-2,6-dione] | A (0%≤ substrate protein remaining % ≤80%) | A (0%≤ substrate protein remaining % ≤80%) | A (0%≤ substrate protein remaining % ≤80%) | A (0%≤ substrate protein remaining % ≤80%) | A (0%≤ substrate protein remaining % ≤80%) | 
500 to 1000 nM | CC1(C)CCC(CN2CC(Sc3cccc4c3CN(C3CCC(=O)NC3=O)C4=O)C2)=C(c2ccc(Cl)cc2)C1 (stereo not drawn) [GT-06515, 3-(4-((1-((4′-chloro-5,5-dimethyl-3,4,5,6-tetrahydro-[1,1′-biphenyl]-2-yl)methyl)azetidin-3-yl)thio)-1-oxoisoindolin-2-yl)piperidine-2,6-dione] | A (0%≤ substrate protein remaining % ≤80%) | A (0%≤ substrate protein remaining % ≤80%) | A (0%≤ substrate protein remaining % ≤80%) | A (0%≤ substrate protein remaining % ≤80%) | A (0%≤ substrate protein remaining % ≤80%) | 
1000 to 1900 nM | CC1(C)CCC(CN2CC(Oc3ccc4c(c3)C(=O)N(C3CCC(=O)NC3=O)C4)C2)=C(c2ccc(Cl)cc2)C1 (stereo not drawn) [GT-06872, 3-(6-((1-((4′-chloro-5,5-dimethyl-3,4,5,6-tetrahydro-[1,1′-biphenyl]-2-yl)methyl)azetidin-3-yl)oxy)-1-oxoisoindolin-2-yl)piperidine-2,6-dione] | A (0%≤ substrate protein remaining % ≤80%) |  | A (0%≤ substrate protein remaining % ≤80%) | A (0%≤ substrate protein remaining % ≤80%) | A (0%≤ substrate protein remaining % ≤80%) | A (0%≤ substrate protein remaining % ≤80%)
500 to 1000 nM | O=C1CCC(N2Cc3cc(OC4CCN(Cc5ccccc5-c5ccc(Cl)cc5)C4)ccc3C2=O)C(=O)N1 (stereo not drawn) [GT-06817, 3-(5-((1-((4′-chloro-[1,1′-biphenyl]-2-yl)methyl)pyrrolidin-3-yl)oxy)-1-oxoisoindolin-2-yl)piperidine-2,6-dione] | A (0%≤ substrate protein remaining % ≤80%) |  | A (0%≤ substrate protein remaining % ≤80%) | A (0%≤ substrate protein remaining % ≤80%) | A (0%≤ substrate protein remaining % ≤80%) | A (0%≤ substrate protein remaining % ≤80%)
